Measurements: paper PMC9181987, “Disclosing the Potential of Fluorinated Ionic Liquids as Interferon-Alpha 2b Delivery Systems” (Nanomaterials, 2022)
Where “and” joins values, the source holds several entries; their conditions need not be identical. Equal entries are not always repeated. Where two headings read alike, the source gives them in different places.

Experiments:
IFN-α 2b = biological target: T1, IFN-α 2b (Homo sapiens, UniProt P01563); experiment: Intrinsic fluorescence spectroscopy of IFN-α 2b with FILs (λmax shift, Stern–Volmer quenching); type: binding
T1 construct: purchased Sigma-Aldrich SRP4595; host or cells: E. coli
Experimental: The concentrations were chosen to cover the range where the different aggregates of the FILs are formed. Samples, equilibrated for 30 min at room temperature, and 400 μL of each solution were transferred to a quartz cuvette of 10 mm pathlength and excited at 280 nm, collecting the fluorescence intensity in a wavelength range of 300 to 450 nm. The width of the excitation and emission slit was set to 5 nm for both cases. The spectra of FIL solutions (blanks) were discounted to the spectra of FIL + protein samples to avoid any possible effect of FIL concentration increment in the fluorescence intensity.
A very well-known equation, the Stern–Volmer, was used to characterize the quenching occurring in this region. This equation characterizes the collisional quenching that can occur when the excited state of the fluorophore is disabled due to contact with another molecule (quencher), without chemical alteration. Therefore, the collisional quenching is described by:(11) F0/F=1+K[Q]=1+kqτ0[Q] where F0 and F are the fluorescence intensities of the fluorophore in the absence and presence of the quencher, respectively, K is the Stern–Volmer quenching constant, kq is the biomolecular quenching constant, τ0 is the unquenched lifetime, and [Q] is the quencher concentration. […] This value gives information on the sensitivity of the fluorophore to a quencher.

[1] = Conductivity titration: critical aggregation concentrations, ionization degree, Gibbs free energy of aggregation; type: physicochemical; design: First CAC (wFIL) / Third CAC (wFIL): unit not given here; conditions: 25°C
Experimental: For this purpose, a CDM210 conductometer (Radiometer Analytical, Lyon, France) and a CDC749 electrode (Radiometer Analytical, Lyon, France) were utilized. The electrode was calibrated at 25 °C using two standard solutions of 0.1 and 0.01 D KCl (Radiometer Analytical). The standard solutions and samples were measured inside of a glass cell in a thermostated bath at 25 °C with constant magnetic stirring. […] Each sample was then placed on the cell, stirred, and had its ionic conductivity measured. […] This experimental procedure was carried out until the ionic conductivity reached a plateau. […] The ionic conductivity was measured at least three times before adding more solution and the uncertainty of each measurement was estimated to be less than 1%.
A thorough analysis of the conductivity profile was advanced by applying the Phillips definition, which studies the change of the slopes of the conductivity curve along with the variation in FIL concentration.
From the parameter α, the degree of counterion binding, β, can be calculated. This parameter is associated with the charge density at the surface, the size, and the hydrophobic nature of the aggregate. It is given by the following equation:β = 1 − α(1)
Another parameter was considered in this study related to the spontaneity of a surfactant to aggregate, given by the standard Gibbs free energy of aggregation, ΔGagg0 . This parameter is provided by the pseudophase model of micellization, using the equation:(2) ΔGagg0=RT(1+β)lnxCAC where R is the universal gas constant, T is the absolute temperature and xCAC corresponds to the value of CAC in molar fraction. As long as this parameter is more negative, this means that the process of aggregation in the specific CACs is more spontaneous.

[2] = Dynamic light scattering: aggregate size and polydispersity index; type: physicochemical; conditions: 150 mM NaH2PO4, 25°C
Experimental: These concentrations were chosen to comprise two different aggregates of each FIL, above the 1st CAC and the 3rd CAC. […] Therefore, 20 μL was transferred into a quartz cell of 10 mm pathlength and measured at 25 °C.
Moreover, the polydispersity index (PdI) was obtained by DLS which determines the heterogeneity of the sample in the function of the size.

[3] = design: method as in earlier work; conditions: Water, 25°C, ref [1]; cited from earlier work
[4] = 10 μg/mL IFN-α 2b + 5 mM NaH2PO4 (pH=7.4)

T1 sequence (P01563 24-188): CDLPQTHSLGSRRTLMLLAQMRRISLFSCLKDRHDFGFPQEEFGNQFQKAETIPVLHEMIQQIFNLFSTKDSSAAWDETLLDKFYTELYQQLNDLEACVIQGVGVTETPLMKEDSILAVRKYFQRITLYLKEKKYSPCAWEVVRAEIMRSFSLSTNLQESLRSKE

CCn1cc[n+](C)c1.O=S(=O)([O-])C(F)(F)C(F)(F)C(F)(F)C(F)(F)F [[C2C1Im][C4F9SO3], 1-Ethyl-3-methylimidazolium perfluorobutanesulfonate]
Stern–Volmer quenching constant K (IFN-α 2b; IFN-α 2b 20 μg/mL, region ~14 mM to ~110 mM FIL, 5 mM NaH2PO4 pH 7.4, excitation 280 nm): 0.0106 mM⁻¹ | biomolecular quenching constant kq (IFN-α 2b; from K and τ0 of IFN-α 2b): 3.59e+09 M⁻¹ s⁻¹ | First CAC [1, 4]: 15.19 mmol/kg | First CAC (wFIL) [1, 4]: 0.0062 | Gibbs free energy of aggregation ΔG0agg, First CAC [1, 4]: -5.5 kcal/mol | Gibbs free energy of aggregation ΔG0agg, Second CAC [1, 4]: -4.85 kcal/mol | Gibbs free energy of aggregation ΔG0agg, Third CAC [1, 4]: -5.69 kcal/mol | Second CAC [1, 4]: 43.57 mmol/kg | Second CAC (wFIL) [1, 4]: 0.0179 | Third CAC [1, 4]: 83.44 mmol/kg | Third CAC (wFIL) [1, 4]: 0.0342 | ionization degree α, First CAC [1, 4]: 0.87 | ionization degree α, Second CAC [1, 4]: 0.85 | ionization degree α, Third CAC [1, 4]: 0.52 | First CAC ([1]; 5 mM NaH2PO4 (pH=7.4)): 13.75 mmol/kg | First CAC (wFIL) ([1]; 5 mM NaH2PO4 (pH=7.4)): 0.0056 | Gibbs free energy of aggregation ΔG0agg, First CAC ([1]; 5 mM NaH2PO4 (pH=7.4)): -5.66 kcal/mol | Gibbs free energy of aggregation ΔG0agg, Second CAC ([1]; 5 mM NaH2PO4 (pH=7.4)): -4.83 kcal/mol | Gibbs free energy of aggregation ΔG0agg, Third CAC ([1]; 5 mM NaH2PO4 (pH=7.4)): -6.36 kcal/mol | Second CAC ([1]; 5 mM NaH2PO4 (pH=7.4)): 46.13 mmol/kg | Second CAC (wFIL) ([1]; 5 mM NaH2PO4 (pH=7.4)): 0.0189 | Third CAC ([1]; 5 mM NaH2PO4 (pH=7.4)): 83.13 mmol/kg and 80.35 mmol/kg | Third CAC (wFIL) ([1]; 5 mM NaH2PO4 (pH=7.4)): 0.0341 | ionization degree α, First CAC ([1]; 5 mM NaH2PO4 (pH=7.4)): 0.85 | ionization degree α, Second CAC ([1]; 5 mM NaH2PO4 (pH=7.4)): 0.85 | ionization degree α, Third CAC ([1]; 5 mM NaH2PO4 (pH=7.4)): 0.34 | First CAC ([1]; 25 mM KH2PO4 (pH=6.8)): 1.99 mmol/kg | First CAC (wFIL) ([1]; 25 mM KH2PO4 (pH=6.8)): 0.0008 | Gibbs free energy of aggregation ΔG0agg, First CAC ([1]; 25 mM KH2PO4 (pH=6.8)): -10.7 kcal/mol | Gibbs free energy of aggregation ΔG0agg, Second CAC ([1]; 25 mM KH2PO4 (pH=6.8)): -5.76 kcal/mol | Gibbs free energy of aggregation ΔG0agg, Third CAC ([1]; 25 mM KH2PO4 (pH=6.8)): -7.15 kcal/mol | Second CAC ([1]; 25 mM KH2PO4 (pH=6.8)): 38.64 mmol/kg | Second CAC (wFIL) ([1]; 25 mM KH2PO4 (pH=6.8)): 0.0158 | Third CAC ([1]; 25 mM KH2PO4 (pH=6.8)): 71.45 mmol/kg | Third CAC (wFIL) ([1]; 25 mM KH2PO4 (pH=6.8)): 0.0293 | ionization degree α, First CAC ([1]; 25 mM KH2PO4 (pH=6.8)): 0.24 | ionization degree α, Second CAC ([1]; 25 mM KH2PO4 (pH=6.8)): 0.66 | ionization degree α, Third CAC ([1]; 25 mM KH2PO4 (pH=6.8)): 0.18 | First CAC ([1]; 100 mM HCl (pH=1.2)): 4.65 mmol/kg | First CAC (wFIL) ([1]; 100 mM HCl (pH=1.2)): 0.0019 | Gibbs free energy of aggregation ΔG0agg, First CAC ([1]; 100 mM HCl (pH=1.2)): -11.1 kcal/mol | ionization degree α, First CAC ([1]; 100 mM HCl (pH=1.2)): 0.003 | First CAC ([1]; 150 mM NaCl (pH=7.3)): 3.51 mmol/kg | First CAC (wFIL) ([1]; 150 mM NaCl (pH=7.3)): 0.0014 | Gibbs free energy of aggregation ΔG0agg, First CAC ([1]; 150 mM NaCl (pH=7.3)): -10.7 kcal/mol | Gibbs free energy of aggregation ΔG0agg, Second CAC ([1]; 150 mM NaCl (pH=7.3)): -5.47 kcal/mol | Gibbs free energy of aggregation ΔG0agg, Third CAC ([1]; 150 mM NaCl (pH=7.3)): -7 kcal/mol | Second CAC ([1]; 150 mM NaCl (pH=7.3)): 33.69 mmol/kg | Second CAC (wFIL) ([1]; 150 mM NaCl (pH=7.3)): 0.0138 | Third CAC ([1]; 150 mM NaCl (pH=7.3)): 83.46 mmol/kg | Third CAC (wFIL) ([1]; 150 mM NaCl (pH=7.3)): 0.0342 | ionization degree α, First CAC ([1]; 150 mM NaCl (pH=7.3)): 0.14 | ionization degree α, Second CAC ([1]; 150 mM NaCl (pH=7.3)): 0.75 | ionization degree α, Third CAC ([1]; 150 mM NaCl (pH=7.3)): 0.17 | First CAC ([1]; 150 mM NaH2PO4 (pH=7.4)): 14.57 mmol/kg | First CAC (wFIL) ([1]; 150 mM NaH2PO4 (pH=7.4)): 0.0060 | Gibbs free energy of aggregation ΔG0agg, First CAC ([1]; 150 mM NaH2PO4 (pH=7.4)): -5.59 kcal/mol | Gibbs free energy of aggregation ΔG0agg, Second CAC ([1]; 150 mM NaH2PO4 (pH=7.4)): -5.16 kcal/mol | Gibbs free energy of aggregation ΔG0agg, Third CAC ([1]; 150 mM NaH2PO4 (pH=7.4)): -7.05 kcal/mol | Second CAC ([1]; 150 mM NaH2PO4 (pH=7.4)): 32.93 mmol/kg | Second CAC (wFIL) ([1]; 150 mM NaH2PO4 (pH=7.4)): 0.0135 | Third CAC ([1]; 150 mM NaH2PO4 (pH=7.4)): 68.76 mmol/kg | Third CAC (wFIL) ([1]; 150 mM NaH2PO4 (pH=7.4)): 0.0282 | ionization degree α, First CAC ([1]; 150 mM NaH2PO4 (pH=7.4)): 0.85 | ionization degree α, Second CAC ([1]; 150 mM NaH2PO4 (pH=7.4)): 0.82 | ionization degree α, Third CAC ([1]; 150 mM NaH2PO4 (pH=7.4)): 0.21 | Polydispersity index (PdI) ([2]; 29.3 mM FIL): 1.000 | Polydispersity index (PdI) ([2]; 243.8 mM FIL): 0.157 | First CAC [3]: 14.55 mmol/kg | First CAC (wFIL) [3]: 0.0060 | Gibbs free energy of aggregation ΔG0agg, First CAC [3]: -5.9 kcal/mol | Gibbs free energy of aggregation ΔG0agg, Second CAC [3]: -4.97 kcal/mol | Gibbs free energy of aggregation ΔG0agg, Third CAC [3]: -6.57 kcal/mol | Second CAC [3]: 38.54 mmol/kg | Second CAC (wFIL) [3]: 0.0158 | Third CAC [3]: 81.03 mmol/kg | Third CAC (wFIL) [3]: 0.0332 | ionization degree α, First CAC [3]: 0.79 | ionization degree α, Second CAC [3]: 0.84 | ionization degree α, Third CAC [3]: 0.29
